From patent US20260217651A1 (priority 2022, published 2026)
Read-outs that look alike come from different tables or passages of the source.

Assays:
[1] = test system: SD rats; assay: animal or person; type: in vivo, rat; conditions: iv; for minimal effective dose: Rattus norvegicus, read-out: Minimal effective anesthetic dose(mg/kg); for Onset time / Righting Reflex Duration / Sedation Duration: rat, in vivo
[2] = test system: SD rats; assay: animal or person; type: in vivo; conditions: Rattus norvegicus, iv, read-out: Minimal effective analgesic dose(mg/kg)

SMILES	minimal effective dose [1] [mg/kg]	Onset time [1] [min]	Righting Reflex Duration [1] [min]	Sedation Duration [1] [min]	minimal effective dose [2] [mg/kg]
CCOC(=O)N(c1ccc(OC(C)C)cc1)N1CCN(c2cc(C(C)C)c(O)c(C(C)C)c2)CC1 [Cpd-100]	20 to 40	0.37 to 0.95	6.65 to 26.68	62.20 to 114.60	20 to 40
CCOC(=O)C1(c2ccc(Cl)cc2Cl)CCN(c2cc(C(C)C)c(O)c(C(C)C)c2)CC1 [Cpd-28]	20 to 40	0.73 to 1.02	2.97 to 12.00	31.98 to 218.72	20 to 40
CCOC(=O)N(c1ccc(SC)cc1)N1CCN(c2cc(C(C)C)c(O)c(C(C)C)c2)CC1 [Cpd-97]	5 to 10	0.20 to 0.60	5.25 to 32.28	31.60 to 83.28	10 to 20
CCOC(=O)N(c1ccccc1)N1CCN(c2cc(C(C)C)c(O)c(C(C)C3CC3)c2)CC1 (stereo not shown) [Cpd-53]	< 5	0.47 to 1.27	2.00 to 37.20	27.75 to 167.40	5 to 10
CCCOc1ccc(N(C(=O)OCC)N2CCN(c3cc(C(C)C)c(O)c(C(C)C)c3)CC2)cc1 [Cpd-99]	10 to 20	1.03 to 1.38	25.58 to 25.87	67.73 to 88.57	10 to 20
